Laboratory results taken from US20210154156A1, “APPLICATION OF COMPOUND IN INHIBITING AB ACCUMULATION AND TREATING ALZHEIMER'S DISEASE” (NORTHEAST NORMAL UNIVERSITY, priority 2018, published 2021).
Structures can show the parent of a compound that is named as a salt.

Columns and labels:
Aβ protein monomer = target: T1, Aβ protein monomer (Homo sapiens, UniProt P05067); assay: Circular dichroism spectrum experiment (CD) of Aβ β-sheet formation; type: biochemical; conditions: Aβ 20 uM; drug 10, 20, 40 uM; 12 hours 37° C.
T1 construct: purchased Nanjing Elutrian Biological Co. Ltd
T1 sequence (P05067 672-713 limits assumed): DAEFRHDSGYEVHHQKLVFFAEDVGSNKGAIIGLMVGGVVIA
Procedure: The A beta monomer was mixed with a drug, the final concentration of Aβ was 20 uM, the final concentrations of the drug were 0 uM, 10 uM, 20 uM and 40 uM respectively, and after 12 hours incubation at 37° C., a J-810 spectrometer (Jayasco, Japan) was used for detection. The wavelength range was 190-250 nm, the resolution was 0.5 nm, the spectrum width was 2 nm, the scanning speed was 100 nm/min, the response time was 1 s, and the measuring temperature was normal temperature. The solution was added to a quartz cuvette with an optical path of 0.1 mm for measurement, and each experiment was repeated three times. Subtracting the buffer curve from each scan curve as the experimental result, each experiment was repeated three times, and the average value was given.

[1] = tested on: APP/PS1 double transgenic mice; assay: Morris water maze in APP/PS1 transgenic mice; type: in vivo; conditions: intragastric administration for 2 months
Source text: (§1) The wild-type (WT) and APP/PS1 double transgenic mice used in the experiment of the present invention were purchased from the Model Animal Research Institute of Nanjing University, and the mouse genes were identified in strict accordance with the PCR method provided.
In the Morris water maze experiment, the mouse water maze training was two days (data not recorded). The mice were placed into the pool from 4 entry points (quadrants) facing the pool wall. The platform was hidden 1 cm underwater, and the water temperature was kept at 23° C. , and the training lasted for 2 minutes. […] The experiment phase started from the third day, and the experiment was continued for 6 days. Each mouse was tested once a day. During the experiment, the mice were respectively placed into the pool from 4 entry points (quadrants) facing the pool wall.
The time was recorded from the mice entering the water to the mice finding and staying in the underwater hidden platform. That was called as the incubation period. On the eighth day, the platform was removed, and each mouse was launched from the farthest position of the original platform and swam freely for 2 minutes. The swimming time of the animal in the target quadrant (the area where the platform located), the number of times of traversing the platform, the path and other main parameters were tracked and recorded by the miniature camera and analyzed.

Aβ42 monomers = target: T2, Aβ42 monomers (Homo sapiens, UniProt P05067); assay: Thioflavin T test (ThT) of Aβ42 monomer aggregation; type: biochemical; conditions: Aβ 20 uM; drug 10, 20, 40 uM; 37° C. 24 hours; concentration-dependent
T2 construct: purchased Nanjing Elutrian Biological Co. Ltd
T2 sequence (P05067 672-713 limits assumed): as above
Procedure: The protein A beta protein was provided by Nanjing Elutrian Biological Co. Ltd. and the purity was greater than 95%. The compound macroflavin was provided by Shanghai Yuan-Ye biological company. The Aβ monomer powder was stored at −80° C., standing for 30 minutes at room temperature for the first time, then diluted with hexafluoroisopropanol (HFIP) to 1.0 mg/mL. It stood for at least 2 hours, carrying out ultrasonic 30 minutes to destroy the existing multi-polymer structure, standing and drying at low temperature, was immediately stored at −20° C. Thioflavin T was purchased from Sigma (cargo number T3516-5 G). 0.032 g of THT powder was weighed and dissolved in 20 mL of 20 mM Tris-HCl (pH 7.4) solution to obtain a 5 mM THT mother liquor, and was diluted to 5 uM when used.

[2] = tested on: human neuroma blasts SH-SY5Y; assay: MTT test of Aβ42 oligomer-mediated neurotoxicity in SH-SY5Y; type: cell-based
Procedure: The cells used in the Aβ42 oligomer-mediated neurotoxicity damage experiment were human neuroma blasts SH-SY5Y, incubated in DME medium of 10% FBS at 37° C. The control group without Aβ protein and the experimental group with added drug were cultured overnight at 37° C. with slow shaking, and transferred to a 96-well cell culture plate containing SH-SY5Y. The final concentration of Aβ protein was 1 uM and the final concentration of drug was 0.25 uM. 0.5 uM, 1 uM and 2 uM, three parallel holes for each concentration, action time 3 hours, MTT method 490 nm wavelength tested 5 times to analyze cell proliferation.

Aβ42 monomer = target: T3, Aβ42 monomer (Homo sapiens, UniProt P05067); assay: Transmission electron microscopy (TEM) of Aβ42 fiber formation; type: biochemical; conditions: 37° C. 24 hours; concentration-dependent
T3 construct: purchased Nanjing Elutrian Biological Co. Ltd
T3 sequence (P05067 672-713 limits assumed): as above
Procedure: The preparation was the same as that of Example 1. Then, the Aβ protein sample was incubated at 37° C. for 24 hours, dropped on the surface of a 300 mesh carbon film copper mesh, dried in air, dyed with 2% (w/v) phosphotungstate sodium salt negative for 30 seconds, standing at room temperature for about 4 hours, then the JEM-100CXII transmission electron microscope system (JEOL Inc., Tokyo, Japan) was used to detect and take pictures with an acceleration voltage of 80 kV.

formed Aβ fibers = target: T4, formed Aβ fibers (Homo sapiens, UniProt P05067); assay: Depolymerization of the formed Aβ fibrous structure (ThT and TEM); type: biochemical
T4 construct: purchased Nanjing Elutrian Biological Co. Ltd
T4 sequence (P05067 672-713 limits assumed): as above
Procedure: The preparation was the same as that shown in Examples 1 and 2, except that the Aβ42 protein was first incubated at 37° C. for 48 hours, then the drug effect was added, the sample was taken at −20 ° C. every 6 hours, after 48 hours, using all of the samples for ThaT and TEAM tests.

[3] = tested on: APP/PS1 double transgenic mice; assay: Y maze in APP/PS1 transgenic mice; type: in vivo; conditions: after two months of treatment
Source text: as §1
In the Y maze experiment, three black striped long arms were marked A, B, and C with the same appearance were combined in a Y shape. The mouse was put in the A arm, and recorded as an error if it turned back from the other long arm during free movement, such as ABA, BCB, etc., recalculated with this arm as the starting point, such as ABACBABCBA. The experiment time for each mouse lasted 8 minutes. When the experiment was completed, the Y labyrinth was cleaned and disinfected with alcohol, and the experiment was performed on the next mouse after drying.

APP/PS1 transgenic mice = assay: Thioflavin S and Congo red staining of brain Aβ plaques in APP/PS1 transgenic mice; type: in vivo
Source text: as §1
10-month-old AD mice were anesthetized with 0.4% pentobarbital sodium. Blood was taken by perfusing the atria. 4% paraformaldehyde was perfused for whole body fixation. The brain tissue was taken and weighed. The hemibrains were put into 4% paraformaldehyde solution and used for histopathology. The other half was stored in a cryotube at −80° C. for biochemical analysis. The brain tissues fixed with 4% paraformaldehyde were embedded in wax and sliced. The plaques in the cerebral cortex and hippocampus were stained with Thioflavin S and Congo Red. Pathological images were obtained by digital microscope and fluorescence microscope and quantitatively analyzed.

| SMILES | Formation of the β-sheet structure of Aβ monomer (CD) (Aβ protein monomer) | Effect on improving symptoms of AD mice (Morris water maze) [1] | ThT fluorescence intensity (Aβ42 monomer aggregation) vs control group without medicine (Aβ42 monomers) | MTT absorbance value (protection from Aβ42 oligomer-mediated neurocytotoxicity) vs control group without drug ([2]; Aβ 1 uM, drug 0.25, 0.5, 1, 2 uM, 3 hours, 490 nm) | MTT effect compared with positive control curcumin ([2]; when the concentration was low) | Aβ protein fiber density, length and width (TEM) (Aβ42 monomer) | ThT fluorescence intensity of pre-formed Aβ fibers vs non-dosing control (formed Aβ fibers; Aβ42 pre-incubated 37° C. 48 hours, then drug, sampled every 6 hours to 48 hours) | Depolymerization of formed Aβ fibers (TEM) (formed Aβ fibers; after 48 hours of treatment) | Incubation period for AD mice to find the platform (Morris water maze) ([1]; 8-month-old APP/PS1 mice) | Number of times AD mice crossed the virtual platform (Morris water maze) ([1]; platform removed) | Y maze effect compared with Arishen treatment group [3] | Correct rate in Y maze of AD mice ([3]; saline AD about 58%, WT about 82%) | Plaque effect compared with positive control nourishing blood serum brain drug group (APP/PS1 transgenic mice; 10-month-old AD mice) | Number of stained Aβ deposition plaques in cortex or hippocampus (Thioflavin S, Congo red) vs normal saline AD mice (APP/PS1 transgenic mice; 10-month-old AD mice after 2 months intragastric administration) |
| --- | --- | --- | --- | --- | --- | --- | --- | --- | --- | --- | --- | --- | --- | --- |
| COc1cc2c(cc1OC)C(=O)C(CC1CCN(Cc3ccccc3)CC1)C2 (stereo not drawn) [Arishen, donepezil hydrochloride, reference compound] | had no effect | limited effect |  |  |  |  |  |  |  |  |  |  |  |  |
| Cc1cc(O)c2c(c1)C(=O)c1cc(O)cc(O)c1C2=O [emodin, 1,3,8-trihydroxy-6-methylanthracene-9, 10-dione] | significantly reduce |  | significantly decreased | increased significantly | stronger than that of the positive control curcumin | decreased significantly | remained basically unchanged | could not depolymerize | significantly reduced | significantly improved | better than the Arishen treatment group | increased significantly | slightly better | statistically significant reduction |
